Assay results published in paper PMC4971421, “Redox-Dependent Modulation of T-Type Ca^2+ Channels in Sensory Neurons Contributes to Acute Anti-Nociceptive Effect of Substance P” (Antioxidants & Redox Signaling, 2016).
pIC50: −log10 of the molar value.

Experiments:
[1] = tested on: L-type VGCCs; conditions: 1 μM; cited from earlier work
Method: (§1) The T-type Ca^2+ current is an important regulator of sensory neuron excitability ([10], [17], [18], [20], [23], [24], [51], [71], [75]). […] Z944 (1 μM) inhibited LVA curren ...

[2] = tested on: CaV3; conditions: read-out: IC50, CaV3 inhibition; cited from earlier work
Method: as §1

[3] = tested on: T-type Ca^2+ channels (LVA Ca^2+ current) in DRG neurons; assay: LVA (T-type) Ca2+ current, whole-cell patch clamp, cultured small-diameter DRG neurons; type: cell-based, rat; conditions: 1 μM; mean ± SEM, n = 7; SEM
Method: DRG neurons from adult male Sprague–Dawley rats (170–180 g) were dissociated as previously described ([13], [29]) and cultured in DMEM supplemented with GlutaMax I, 10% fetal calf serum, penicillin (50 U/ml), and streptomycin (50 μg/ml) on glass coverslips that were coated with poly-D-lysine for 2–5 days in a humidified incubator (37°C, 5% CO2). No growth factors were added to the culture media. HEK 293 cells were cultured in the same DMEM media; cells were passaged every 2 days. Human NK1 receptor (GenBank accession No. AY462098) complementary DNA (cDNA) was from the Missouri Science and Technology cDNA Resource Center. WtCaV3.1 (GenBank accession No. AF027984), wtCaV3.2 (GenBank accession No. AF051946), CaV3.1Q172H, and CaV3.2H191Q were kindly provided by Dr E. Perez-Reyes (University of Virginia). HEK293 cells were transfected using Lipofectamine 2000 (Invitrogen) according to the manufacturer's instructions. ST101 was synthesized in house; Z944 was from Toronto Research Chemicals; PTX was from Enzo Life Science; and FluoZin-3AM was from Life Technologies. All other chemicals were from Sigma.
All recordings were made using Multiclamp 700B amplifier in combination with pCLAMP 10.4 software (Molecular Devices). Voltage-clamp recordings from DRG neurons were made using whole-cell patch clamp. The standard bath solution contained the following (in mM): 150 TEA-Cl; 2.5 CsCl; 2.5 CaCl2; 10 HEPES; 0.5 MgCl2; and 10 glucose (pH 7.4 adjusted with CsOH). The standard pipette solution contained the following (in mM): 110 CsCl; 3 MgCl2; 10 EGTA; 10 HEPES; 3 Mg-ATP; and 0.6 GTP (pH 7.4 adjusted with CsOH). The access resistance was typically within 4–8 MΩ. T-type calcium currents (LVA) were measured by 50 ms square voltage pulses to −40 mV from a holding potential of −90 mV. HVA currents were measured by 200 ms square voltage pulses to 0 mV from a holding potential of −90 mV.
where y is the current inhibition; A1 and A2 are the maximum and minimum effects, respectively; x is the S9SP concentration; and nH is the Hill coefficient.

[4] = tested on: rat hind paw; assay: Cotton swab test (gentle touch); type: in vivo; conditions: 50 μl; 0.5 nmol/site; 8 min after injection
Method: For measurement of sensitivity to gentle touch and mechanical hyperalgesia, two methods were used. (i) Cotton swab test was performed as previously described ([53]). Briefly, rats were allowed to acclimate in a cage with a wire mesh bottom for at least 30 min and then were manually probed with a “cotton swab” pulled from a Q-tip (to approximately three times the original size). A swab was applied in a sweeping motion underneath the rats’ paws, and the withdrawal responses were recorded. Five sweeps were applied in each test, with at least 10 s between each sweep; withdrawal score was calculated as a percentage of positive responses. (ii) The von Frey test was performed using a calibrated range of filaments with different bending forces (2, 4, 6, 8, 10, and 15 g; Stoelting Co.). A single filament was applied perpendicularly to the plantar surface of the hind paw for five times, with an interval of 5 s, and it was scored for withdrawal responses. Each force was probed five times, the number of withdrawals out of five trials was counted, and the percentage of withdrawal responses was calculated. Both types of assays were performed 8 min after the hind-paw drug injection.

[5] = tested on: rat hind paw; assay: Hargreaves test, paw withdrawal latency to noxious heat; type: in vivo; conditions: hind-paw injection 50 μl; 0.005–0.5 nmol/site; 8 min after injection
Method: For measurement of thermal hyperalgesia, the change in the latency of hind-paw withdrawal in response to noxious heat was recorded using the Hargreaves’ plantar method (Ugo Basile) at 8 min after the hind-paw injection of drugs; the heat source was set to 25% of the maximal intensity.

[6] = tested on: Nav1.5; conditions: 1 μM; cited from earlier work
[7] = tested on: hERG channels; conditions: 1 μM; cited from earlier work
[8] = tested on: small-diameter DRG neurons; assay: DRG neuron excitability, perforated patch current clamp; type: cell-based, rat
Method: To knock down CaV3.2, DRGs were dissociated as described ([13]); immediately after dissociation, DRG pellets were resuspended in 900 μl DMEM (without GlutaMax I, serum or antibiotics), to which a mixture of 9 μl Lipofectamine RNAiMAX (Invitrogen) and either a mix of three anti-Cacna1h Stealth siRNAs (RSS350285, RSS350286, RSS350287; Life Technologies; 200 nM each) or a scrambled control oligo (Stealth RNAi™ siRNA Negative Control; Life Technologies; 200 nM) were added immediately before resuspension. Cultures were than plated in 50 μl droplets onto glass coverslips that were coated with poly-D-lysine and incubated for 5–6 h; the transfection media were then replaced with full DRG culture medium. Patch-clamp recordings were conducted 24–48 h after the transfection. The following primers were used for reverse transcription polymerase chain reaction (RT-PCR) analysis: • Cacna1h sense: 5′-[…]-3′ • Cacna1h AS: 5′-[…]-3′ • Gapdh sense: 5′-[…]-3′ • Gapdh AS: 5′-[…]-3′
Neuronal excitability was studied using the amphotericin B-perforated patch-clamp current technique ([13]). The extracellular solution contained the following (in mM): 160 NaCl, 2.5 KCl, 5 CaCl2, 1 MgCl2, 10 HEPES, and 8 Glucose. The intracellular solution contained the following (in mM): 145 KCl, 15 NaCl, 5 MgCl2, 10 HEPES, and 250 μg/ml Amphotericin B. The access resistance was typically within […]. APs were generated by an injection of 200 pA current for 1 s from a holding current of 0 pA. Rheobase was determined from a train of current steps from 0 to 400 pA delivered in 20-pA increments. Current clamp recordings were sampled at 12.5 kHz. Bridge balance adjustments were not applied, since only relative changes in Erest, AP number, and rheobase were investigated.

[9] = tested on: N-type VGCCs; conditions: 1 μM; cited from earlier work

CC(C)(C)NC(=O)CN1CCC(CNC(=O)c2cc(F)cc(Cl)c2)CC1 [Z944, N-[[1-[2-(tert-butylamino)-2-oxoethyl]piperidin-4-yl]methyl]-3-chloro-5-fluorobenzamide]
effect on L-type VGCCs [1]: no significant effect | pIC50 [2]: ~7.30 | inhibition of LVA current [3]: 71.4% ± 2.7% | sensitivity to light touch, cotton swab assay [4]: produced a similar effect | paw withdrawal latency on radiant heat exposure [5]: significantly increased | effect on Nav1.5 [6]: no significant effect | effect on hERG channels [7]: no significant effect | AP amplitude or duration [8]: without significantly affecting | resting membrane potential (Erest) [8]: hyperpolarized | action potential (AP) firing ([8]; 200 pA for 1 s): decreased | effects of BK on the rheobase and the AP number when co-applied with BK ([8]; BK 250 nM): completely reversed | rheobase ([8]; current steps 0–400 pA in 20-pA increments): significantly increased | small DRG neuron excitability ([8]; perforated current clamp): decreased | effect on Erest, AP number, or rheobase in Cacna1h knocked-down neurons ([8]; siRNA against Cacna1h): neither Z994 nor ST101 produced any significant effect | effect on N-type VGCCs [9]: no significant effect
